Measured values as given in ChEMBL document CHEMBL1201862, “PubChem BioAssay data set” (2004).
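Assay format: 96-well plates, 48-hour exposure. Here, GI50 denotes the concentration required for 50% inhibition of growth.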 Activity calls are given as the source filed them. No stated cut-off is given here; in the data, active = GI50 up to about 1.1 µM and inactive = higher.

Key:
Assay in all cases: inhibition of tumour cell growth, NCI panel, 48 h
NCI/ADR-RES = system: NCI/ADR-RES
COLO 205 = system: COLO 205
HL-60 = system: HL-60
SF-539 = system: SF-539
MDA-N = system: MDA-N
T47D = system: T47D
NCI-H522 = system: NCI-H522
SK-MEL-2 = system: SK-MEL-2
OVCAR-4 = system: OVCAR-4
NCI-H23 = system: NCI-H23
SW-620 = system: SW-620
MDA-MB-435 = system: MDA-MB-435
CCRF-CEM = system: CCRF-CEM
MOLT-4 = system: MOLT-4
A549 = system: A549
786-0 = system: 786-0
PC-3 = system: PC-3

Structure (SMILES)	GI50 (NCI/ADR-RES)	GI50 (COLO 205)	GI50 (HL-60)	GI50 (SF-539)	GI50 (MDA-N)	GI50 (T47D)	GI50 (NCI-H522)	GI50 (SK-MEL-2)	GI50 (OVCAR-4)	GI50 (NCI-H23)	GI50 (SW-620)	GI50 (MDA-MB-435)	GI50 (CCRF-CEM)	GI50 (MOLT-4)	GI50 (A549)	GI50 (786-0)	GI50 (PC-3)
C/C(Cc1ccc2c(c1)OCO2)=N\N=c1\sc2ccccc2n1C	> 100 µM (inactive)	> 100 µM (inactive)	> 100 µM (inactive)	> 100 µM (inactive)	83.2 µM (inactive)	58.7 µM (inactive)	> 100 µM (inactive)	> 100 µM (inactive)	> 100 µM (inactive)	78 µM (inactive)	> 100 µM (inactive)	> 100 µM (inactive)	92.5 µM (inactive)	78.3 µM (inactive)	> 100 µM (inactive)	> 100 µM (inactive)	97.1 µM (inactive)
CC(NC(CC12CC3CC(CC(C3)C1)C2)C(N)=O)c1ccccc1 (configuration not stated)	17.8 µM (inactive)	12.6 µM (inactive)	10.1 µM (inactive)		25.6 µM (inactive)	35.6 µM (inactive)	18 µM (inactive)		33.7 µM (inactive)		31.1 µM (inactive)	16.7 µM (inactive)	19.1 µM (inactive)	16.2 µM (inactive)	39.8 µM (inactive)		27 µM (inactive)
O=C1Nc2ccccc2/C1=N/Nc1nc(-c2ccccc2)cs1	20.5 µM (inactive)	42.4 µM (inactive)	2.45 µM (inactive)	10.1 µM (inactive)	62.4 µM (inactive)	26.9 µM (inactive)		84.1 µM (inactive)	40.7 µM (inactive)	47.6 µM (inactive)	> 100 µM (inactive)	> 100 µM (inactive)		45.2 µM (inactive)	75.3 µM (inactive)	26.4 µM (inactive)	19.2 µM (inactive)
Cc1cccc(Nc2nc3ccccc3nc2NS(=O)(=O)c2ccc(N)cc2)c1	36.1 µM (inactive)	21.1 µM (inactive)	28.1 µM (inactive)	19.1 µM (inactive)	45.9 µM (inactive)	34.5 µM (inactive)	18 µM (inactive)	24.9 µM (inactive)	10 µM (inactive)	5.61 µM (inactive)	17.6 µM (inactive)	38.6 µM (inactive)	15.2 µM (inactive)	11.7 µM (inactive)	23.8 µM (inactive)	30 µM (inactive)	29.6 µM (inactive)
Cc1cn(C2CC(O)C(Cn3nncc3Cn3cnc4c(N)ncnc43)O2)c(=O)[nH]c1=O (configuration not stated)	> 100 µM (inactive)	> 100 µM (inactive)	> 100 µM (inactive)	> 100 µM (inactive)	> 100 µM (inactive)	> 100 µM (inactive)	> 100 µM (inactive)	> 100 µM (inactive)	> 100 µM (inactive)	> 100 µM (inactive)	> 100 µM (inactive)	> 100 µM (inactive)	> 100 µM (inactive)	> 100 µM (inactive)	> 100 µM (inactive)	> 100 µM (inactive)	> 100 µM (inactive)
COc1ccc(N2C(=O)C3c4[nH]c5ccccc5c4C4CCCCCCCC4C3C2=O)cc1 (configuration not stated)	> 10 µM (inactive)	> 10 µM (inactive)	> 10 µM (inactive)	6.95 µM (inactive)	> 10 µM (inactive)	> 10 µM (inactive)	> 10 µM (inactive)	> 10 µM (inactive)	> 10 µM (inactive)	> 10 µM (inactive)	> 10 µM (inactive)	> 10 µM (inactive)	2.07 µM (inactive)	> 10 µM (inactive)	> 10 µM (inactive)		> 10 µM (inactive)
Cc1ccc2nnc(NS(=O)(=O)c3cc(C)c(Cl)cc3S)n2n1	> 100 µM (inactive)	> 100 µM (inactive)	> 100 µM (inactive)	> 100 µM (inactive)	> 100 µM (inactive)	> 100 µM (inactive)	> 100 µM (inactive)	> 100 µM (inactive)	> 100 µM (inactive)		> 100 µM (inactive)	> 100 µM (inactive)	> 100 µM (inactive)	> 100 µM (inactive)	> 100 µM (inactive)	> 100 µM (inactive)	> 100 µM (inactive)
c1ccc(COC2C3COC(O3)C(OCc3ccccc3)C2OCc2ccccc2)cc1 (configuration not stated)	32.1 µM (inactive)	41 µM (inactive)	13.2 µM (inactive)	> 100 µM (inactive)	63.7 µM (inactive)	22.9 µM (inactive)	15.1 µM (inactive)	54.3 µM (inactive)	49.1 µM (inactive)	77.3 µM (inactive)	40.1 µM (inactive)	18.2 µM (inactive)	11.2 µM (inactive)	6.75 µM (inactive)		64.4 µM (inactive)	35.2 µM (inactive)
CNc1ccc([N+](=O)[O-])cc1C(=O)N1CCC[C@H]1CO	> 100 µM (inactive)	> 100 µM (inactive)	> 100 µM (inactive)		> 100 µM (inactive)	> 100 µM (inactive)	> 100 µM (inactive)	> 100 µM (inactive)	> 100 µM (inactive)	> 100 µM (inactive)	> 100 µM (inactive)	> 100 µM (inactive)	> 100 µM (inactive)	> 100 µM (inactive)	> 100 µM (inactive)	> 100 µM (inactive)	> 100 µM (inactive)
CCOC(=O)c1c2cccccc-2nc1Nc1cccc2c(C)ccnc12	> 10 µM (inactive)	7.43 µM (inactive)	4.47 µM (inactive)	> 10 µM (inactive)	> 10 µM (inactive)	2.66 µM (inactive)		> 10 µM (inactive)	4.82 µM (inactive)	> 10 µM (inactive)	> 10 µM (inactive)	> 10 µM (inactive)	4.88 µM (inactive)	5.16 µM (inactive)	> 10 µM (inactive)	> 10 µM (inactive)	5.75 µM (inactive)
O=C1CC(O)c2cscc21 (configuration not stated)	> 100 µM (inactive)	34 µM (inactive)	> 100 µM (inactive)	> 100 µM (inactive)	> 100 µM (inactive)	> 100 µM (inactive)	41.3 µM (inactive)	> 100 µM (inactive)	> 100 µM (inactive)	> 100 µM (inactive)	37.8 µM (inactive)	> 100 µM (inactive)	21.6 µM (inactive)	35.2 µM (inactive)		> 100 µM (inactive)	> 100 µM (inactive)
Cc1cn(C2CC(n3cc(Cn4cc(I)c(=O)[nH]c4=O)nn3)C(CO)O2)c(=O)[nH]c1=O (configuration not stated)	> 100 µM (inactive)	> 100 µM (inactive)	0.0119 µM (active)	> 100 µM (inactive)	> 100 µM (inactive)	> 100 µM (inactive)		> 100 µM (inactive)	> 100 µM (inactive)	> 100 µM (inactive)	> 100 µM (inactive)	> 100 µM (inactive)	> 100 µM (inactive)	> 100 µM (inactive)	> 100 µM (inactive)		> 100 µM (inactive)
C[C@]12CC[C@H](O)CC1=CC[C@@H]1[C@@H]2CC[C@]2(C)NC(=O)/C(=C\c3ccccc3)C[C@@H]12	18.5 µM (inactive)	16 µM (inactive)		14.6 µM (inactive)	24.3 µM (inactive)	12.3 µM (inactive)	10.5 µM (inactive)	12.6 µM (inactive)	5.64 µM (inactive)	18.2 µM (inactive)	16.9 µM (inactive)	18.3 µM (inactive)	17 µM (inactive)	26.5 µM (inactive)	14.6 µM (inactive)	19.8 µM (inactive)	13.3 µM (inactive)
FC(F)(F)c1ccc2c(c1)nc(Cc1ccc(Cl)cc1)n2CC1CCCN2CCCCC12 (configuration not stated)	8.18 µM (inactive)	3.96 µM (inactive)	2.23 µM (inactive)		1.52 µM (inactive)	6.61 µM (inactive)	4.37 µM (inactive)	13.6 µM (inactive)	12.2 µM (inactive)		13.2 µM (inactive)	6.27 µM (inactive)		3.18 µM (inactive)	12.6 µM (inactive)	7.67 µM (inactive)	8.65 µM (inactive)
CC1=C(C(=O)N[C@@H](CC(C)C)C(=O)O)N2C(=O)[C@@H](NC(=O)[C@@H](N)Cc3ccccc3)[C@H]2SC1	> 100 µM (inactive)	> 100 µM (inactive)	> 100 µM (inactive)	> 100 µM (inactive)	> 100 µM (inactive)	> 100 µM (inactive)	> 100 µM (inactive)	> 100 µM (inactive)	> 100 µM (inactive)		> 100 µM (inactive)	> 100 µM (inactive)	> 100 µM (inactive)	> 100 µM (inactive)	> 100 µM (inactive)	> 100 µM (inactive)	> 100 µM (inactive)
COC(=O)C1(NC(=O)C(Cc2ccccc2)N(C(=O)OC(C)(C)C)C(=O)OC(C)(C)C)CCCC1 (configuration not stated)	22.3 µM (inactive)	> 100 µM (inactive)	22.1 µM (inactive)	> 100 µM (inactive)	> 100 µM (inactive)	36.6 µM (inactive)		> 100 µM (inactive)		30.5 µM (inactive)	> 100 µM (inactive)	83.9 µM (inactive)	22.9 µM (inactive)	31.8 µM (inactive)	37.9 µM (inactive)	> 10 µM (inactive)	31 µM (inactive)
O=C1CC2[C@@H](N3CCCC3)CCC(N1Cc1ccccc1)C2(O)O (some centres not stated)	> 100 µM (inactive)	> 100 µM (inactive)	> 100 µM (inactive)	> 100 µM (inactive)	> 100 µM (inactive)	> 100 µM (inactive)	> 100 µM (inactive)		> 10 µM (inactive)	> 100 µM (inactive)	> 100 µM (inactive)	> 100 µM (inactive)	> 100 µM (inactive)	> 100 µM (inactive)	> 100 µM (inactive)	> 100 µM (inactive)	> 100 µM (inactive)
